Laboratory results: US20260062412A1, “NITROGEN-CONTAINING HETEROCYCLIC COMPOUND HAVING MYT1 INHIBITORY ACTIVITY” (CHUGAI SEIYAKU KABUSHIKI KAISHA, priority 2023, published 2026)

How the values were obtained:
[1] = biological target: T1, MYT1 protein (Homo sapiens (Human), UniProt Q99640); test: Test for binding to ATP binding site of MYT1 (Kinase Tracer 178 / Eu-Anti-GST antibody TR-FRET); settings: ATP binding site of MYT1, 30 minutes at room temperature
[2] = system: LU65; test: Cytotoxicity test with pemetrexed upon addition of each example compound (CellTiter-Glo); assay type: cell-based, human; settings: combination with pemetrexed, LU65 cells, 7 days; maximum value, at the MYT1 inhibitor and pemetrexed concentrations
Protocol: LU65 (received from human tissue bank (JCRB Cell Bank)) was used in the evaluation of the present invention. LU65 is a lung cancer cell line having a truncated deletion mutation of S82* in RB1 gene (see Nature. 2019 May; 569(7757): 503-508. (Non Patent Literature 22)), in which the function of RB1 is decreased. The cell culture was carried out using RPMI-1640 (manufactured by SIGMA) containing 10% FBS (manufactured by SIGMA).
Each pemetrexed (manufactured by Tokyo Kasei Kogyo Co., Ltd.) and each example compound of each concentration were diluted using a DMSO solution, and 0.04 μL of each of series of dilution and DMSO was added to each well of cell culture plate using Echo 555 Liquid Handler (manufactured by Beckman Coulter Inc.). 1000 LU65 cells ([…]) were added to each well, which was cultured at 37° C. in a 5% CO2 incubator for 7 days. Intracellular ATP level which is a cell survival marker was measured and used in the monitoring of cell number. After culturing, 20 μL of CellTiter-Glo (registered trademark) 2.0 (manufactured by Promega) was added to each well, and the emission intensity was measured using Multimode Plate Reader En Vision (registered trademark) Xcite (manufactured by PerkinElmer). The cell survival rate under each condition was calculated by setting the value obtained by subtracting the luminescence of the cell unseeded well from the luminescence of the DMSO-added well as 100%, and calculating the proportion of a value obtained by subtracting the luminescence of the cell unseeded well from the luminescence detected at each well.
In addition, the cytotoxic activity under each condition was calculated by subtracting the survival rate in a combination of pemetrexed of each treatment concentration and each example compound of each treatment concentration, from 100%.

[3] = biological target: T1, MYT1 protein; test: MYT1 kinase activity inhibition test (ELISA, phosphorylation of Y15 of CDK1); assay type: biochemical; settings: phosphorylation level of Y15 of CDK1 protein caused by MYT1 protein, 60 minutes
Protocol: The MYT1 kinase activity inhibitory capacity of each compound was evaluated by evaluating the phosphorylation level of Y15 of CDK1 protein caused by MYT1 protein, by ELISA. The kit of CycLex Weel Kinase Assay/Inhibitor Screening Kit Ver. 3 (manufactured by MBL, CY-1172V3) was used. Using Kinase Buffer, 10 μL of 5 nM MYT1 protein (manufactured by Carna Biosciences, Inc.) was prepared. In addition, 30 μL of 83.3 μM of ATP was prepared using Kinase Buffer. In addition, 10 μL of each compound was diluted to each concentration using Kinase Buffer. 30 μL of ATP was added to the plate of the kit, and thereafter, 10 μL of each compound was added thereto. Further, 10 μL of the diluted MYT1 protein solution was added thereto, and then the mixture was mixed, which was allowed to stand at room temperature for 60 minutes. The reaction solution was removed from each well, and each well was washed using Wash Buffer. After Wash Buffer was removed, 100 μL of HRP conjugated Anti-phospho-tyrosine antibody was added to each well, which was allowed to stand at room temperature for 60 minutes. Thereafter, the reaction solution was removed from each well, and each well was washed using Wash Buffer. After Wash Buffer was removed, 100 μL of Substrate Reagent was added to each well, which was allowed to stand at room temperature for 8 minutes. Thereafter, 100 μL of Stop Solution (1 N sulfuric acid) was added to each well according to the manual. Absorbances at 450 nm and 590 nm were measured using Envision (manufactured by PerkinElmer). The phosphorylation level of CDK1 protein was evaluated for each well by subtracting the absorbance at 590 nm from the absorbance at 450 nm. The inhibition rate of each compound added at each concentration was calculated by setting the signal when the compound was not added as 100% and the signal when MYT1 protein was not added as 0%, and the calculation results of IC50 were shown in Table 4.

T1 sequence (Q99640 whole entry): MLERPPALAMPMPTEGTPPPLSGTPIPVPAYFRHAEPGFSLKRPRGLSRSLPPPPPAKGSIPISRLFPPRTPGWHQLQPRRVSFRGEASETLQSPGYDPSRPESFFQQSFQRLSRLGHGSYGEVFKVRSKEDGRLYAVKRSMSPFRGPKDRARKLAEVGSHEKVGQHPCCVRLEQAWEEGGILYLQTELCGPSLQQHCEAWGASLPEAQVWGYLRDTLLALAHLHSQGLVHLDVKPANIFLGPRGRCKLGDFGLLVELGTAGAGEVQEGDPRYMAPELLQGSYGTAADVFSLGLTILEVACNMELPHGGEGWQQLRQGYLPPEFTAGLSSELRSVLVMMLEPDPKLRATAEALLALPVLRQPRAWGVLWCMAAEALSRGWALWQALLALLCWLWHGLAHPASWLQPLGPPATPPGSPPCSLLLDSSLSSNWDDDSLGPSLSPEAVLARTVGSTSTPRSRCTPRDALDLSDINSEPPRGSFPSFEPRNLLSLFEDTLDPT

Row | IC50 [1] [nM] | IC50 [3] [nM] | SMILES | Bliss Score (Max) [2] [%] | HSA Score (MAX) [2] [%]
1 | 1.6 | 0.3 | CCOc1cc2c(-c3ccc(F)c4[nH]ncc34)c(N)c(=O)[nH]c2c2cccnc12 [Compound C8, 3-Amino-6-ethoxy-4-(7-fluoro-1H-indazol-4-yl)-1H-1,7-phenanthrolin-2-one] | 68 | 78
2 | 11 | 0.25 | Nc1c(-c2ccc(F)c3[nH]ncc23)c2cc(C3CC3)c3ccccc3c2[nH]c1=O [Compound B22, 3-Amino-6-cyclopropyl-4-(7-fluoro-1H-indazol-4-yl)-1H-benzo[h]quinolin-2-one] | 56 | 64
3 | 1.8 | 0.22 | Nc1c(-c2cccc3[nH]ncc23)c2cc(C3CC3)c3cnccc3c2[nH]c1=O [Compound P1, 3-Amino-6-cyclopropyl-4-(1H-indazol-4-yl)-1H-1,8-phenanthrolin-2-one] | 49 | 55
4 | 2.7 | 0.2 | Nc1c(-c2ccc(Cl)c3[nH]ncc23)c2cc(C3CC3)c3ncccc3c2[nH]c1=O [Compound C143, 3-Amino-4-(7-chloro-1H-indazol-4-yl)-6-cyclopropyl-1H-1,7-phenanthrolin-2-one] | 50 | 67
5 | 2.8 | < 4.6 | Nc1c(-c2ccc(F)c3[nH]ncc23)c2cc(C3CCOCC3)c3ncccc3c2[nH]c1=O [Compound C98, 3-Amino-4-(7-fluoro-1H-indazol-4-yl)-6-(oxan-4-yl)-1H-1,7-phenanthrolin-2-one] | 46 | 53
6 | 8.3 | 0.26 | CCc1cc2c(-c3ccc(F)c4[nH]ncc34)c(N)c(=O)[nH]c2c2ccccc12 [Compound B23, 3-Amino-6-ethyl-4-(7-fluoro-1H-indazol-4-yl)-1H-benzo[h]quinolin-2-one] | 58 | 63
7 | 2.8 | 0.31 | Nc1c(-c2cccc3[nH]ncc23)c2cc(C3CC3)c3ncccc3c2[nH]c1=O [Compound C185, 3-Amino-6-cyclopropyl-4-(1H-indazol-4-yl)-1H-1,7-phenanthrolin-2-one] | 55 | 68
8 | 7.3 | 0.21 | Cc1cc2c(-c3ccc(F)c4[nH]ncc34)c(N)c(=O)[nH]c2c2ccccc12 [Compound B27, 3-Amino-4-(7-fluoro-1H-indazol-4-yl)-6-methyl-1H-benzo[h]quinolin-2-one] | – | –
9 | 33 | 0.86 | Nc1c(-c2ccc(F)c3[nH]ncc23)c2cc(Cl)c3ccccc3c2[nH]c1=O [Compound B34, 3-Amino-6-chloro-4-(7-fluoro-1H-indazol-4-yl)-1H-benzo[h]quinolin-2-one] | – | –
10 | 6.8 | 3.9 | Nc1c(-c2cccc3[nH]ncc23)c2ccc3ncccc3c2[nH]c1=O [Compound C186, 3-Amino-4-(1H-indazol-4-yl)-1H-1,7-phenanthrolin-2-one] | – | –
11 | 22 | 4 | Nc1c(-c2cccc(O)c2)c2ccc3ccccc3c2[nH]c1=O [Compound B2, 3-Amino-4-(3-hydroxyphenyl)-1H-benzo[h]quinolin-2-one] | – | –
12 | 43 | 0.71 | Nc1c(-c2ccc(Cl)c3[nH]ncc23)c2cc(Cl)c(OC(F)F)cc2[nH]c1=O [Compound A30, 3-Amino-6-chloro-4-(7-chloro-1H-indazol-4-yl)-7-(difluoromethoxy)-1H-quinolin-2-one] | – | –
13 | 11 | 0.3 | Nc1c(-c2cccc3[nH]ncc23)c2cc(Cl)c3ncccc3c2[nH]c1=O [Compound C79, 3-Amino-6-chloro-4-(1H-indazol-4-yl)-1H-1,7-phenanthrolin-2-one] | – | –
14 | 40 | 0.52 | Nc1c(-c2ccc(Cl)c3[nH]ncc23)c2cc(Cl)c(Br)cc2[nH]c1=O [Compound A27, 3-Amino-7-bromo-6-chloro-4-(7-chloro-1H-indazol-4-yl)-1H-quinolin-2-one] | – | –
